{"source": "patent US6444694B1", "about": "“Styryl benzimidazole derivatives” (Wyeth, priority 1995, dated 2002)", "key": {"[1]": {"test_system": "isolated porcine aortic smooth muscle cells", "test": "Porcine aortic smooth muscle cell antiproliferation (3H thymidine incorporation)", "assay_type": "cell-based", "conditions": "24-36 hours", "experimental": "The ability of the compounds of the present invention to inhibit smooth muscle cell proliferation was established using isolated porcine aortic smooth muscle cells in a modification of the procedure of Castellot et al. J. Biol. Chem 257(19) 11256 (1982), as follows:\nFresh porcine aortas, scrupulously cleansed of fatty tissue, are rinsed in sterile phosphate-buffered saline with 2% antibiotic-antimycotic (100×) liquid (10,000 units of penicillin (base), 10,000 μg of streptomycin (base), and 25 μg of amphotericin B/mL utilizing penicillin G (sodium salt), streptomycin sulfate, and amphotericin B as Fungizone® in 0.85% saline, available from Gibco Laboratories, Grand Island Biological Co., Grand Island, N.Y.). The tissue is then digested in 10-15 mL of an enzyme solution containing collagenase type I, 165 U/mL; elastase type III, 15 U/mL; BSA, 2 mg/mL; and soybean trypsin inhibitor, 0.375 mg/mL, followed by incubation at 37° C. under 5% CO2 atmosphere for 10 to 15 minutes. After this treatment, the outer surface adventitia is removed by peeling with a forceps. The aorta is then longitudinally cut and laid open and the endothelial layer is removed by scraping.\nThe medial layer of cells is rinsed in the enzyme solution, and placed in a new 100 mm dish with 10 mL of enzyme solution. The medial layer of cells is minced using a fine pair of scissors and digested for 2-3 hours at 37° C. in 30 mL of fresh enzyme solution. After digestion, the medial tissue is homogenized using a sterile Pasteur pipette with a fire polished tip or an Eppendorf pipetter with a 200-1000 μL sterile pipette tip. The suspension is then centrifuged for 10 minutes at 8000 rpm and the pellet is suspended in 4-6 mL of fresh enzyme solution and plated onto 4-6 100 mm flasks with vented caps. The cells are then allowed to grow to confluence and split using 0.25% trypsin. The cells are evaluated for purity and overall quality using antibody to SMC actin.\nThe cells are assayed in early passage (generally passage 3-7) at sub-confluent conditions. Cultures are grown in 16 mm (24 well) multi-well culture dishes in media 199 supplemented with 10% fetal bovine serum and 2% antibiotic/antimycotic. At subconfluence, the cells are placed in a defined serum free, lymphocyte medium (AIM-V; Gibco) for 24-48 hours prior to initiating the experimental protocol.\nThe standard test procedure is initiated by addition of the test compound, ^3H thymidine and serum or a specific growth factor to the serum deprived synchronized cells. Growth factor and serum stimulations are optimized for each cell type. The test compounds are added to each well at 50 fold dilution (20 μL/well) and the plates are incubated for 24-36 hours at 37° C. in 5% CO2 atmosphere. Test compounds are dissolved in 50% ethanol and assayed at 1, 10, and 100 μM. As a control, RG 50872 (Bilder, G. A.; et al., Am. J. Cell Physiol., 1991; 260: C721) is routinely assayed under the conditions of each cell preparation at a concentration of 5 μM.\nAt the completion of the experiment, the plates are placed on ice, washed three times with ice cold PBS and incubated in ice cold 10% trichloroacetic acid (TCA) for 30 minutes to remove acid soluble proteins. Each solution is transferred to a scintillation vial containing 0.4N HCl (500 μL/vial to neutralize NaOH) and each well is rinsed two times with water […].\nData is quantitated by subjecting the vials to a scintillation counter, in triplicate, for both control and experimental samples. Control (100%) data is obtained from maximally stimulated cells, as the result of growth factor or serum stimulation. Experimental data is obtained from cells maximally stimulated with growth factor or serum and treated with a test compound. (The platelet-derived growth factor used in the assay was human recombinant PDGF-AB purchased from Upstate Biotechnology Inc., Lake Placid, N.Y.). Data is expressed as a percent of control from which IC50s are determined."}, "[2]": {"test": "Cytotoxicity, commercial modification of the MTT assay", "assay_type": "cell-based, porcine", "set-up": "dose or concentration left out as unconfirmed", "conditions": "pig", "experimental": "To distinguish cytotoxicity from the ability of a compound to prevent proliferation, the test compounds were examined using a commercial modification of the MTT assay. Briefly, cells were grown in 24 well plates to 70-80% confluency. The cells were serum deprived for 24-48 hours prior to initiation of the experimental protocol. To insure that the MTT assay monitored toxicity rather than proliferation, the cells were incubated with […] test compound in fresh medium without serum for 24 hours at 37° C. in a humidified CO2 incubator. Upon completion of the compound treatment, MTT indicator dye was added for 4 hours a 37° C. Cells were then solubilized and aliquots from each will were transferred to a 96-well plate for analysis. Absorbance at 570 nm wavelength with a reference wavelength of 630 nm was recorded using an ELISA plate reader. Results are reported as percent viable using no drug (100% viable) and pre-solubilization (0% viable) standards."}, "[3]": {"conditions": "Sus scrofa, serum-stimulated, serum deprived synchronized cells, read-out: Porcine Smooth Muscle Cell Antiproliferation IC50 or % Inhibition at x Concentration, Serum"}, "[4]": {"conditions": "Sus scrofa, stimulated with human recombinant PDGF-AB, read-out: Porcine Smooth Muscle Cell Antiproliferation IC50 or % Inhibition at x Concentration, PDGF"}, "[5]": {"conditions": "serum-stimulated, serum deprived synchronized cells, read-out: Porcine Smooth Muscle Cell Antiproliferation IC50 or % Inhibition at x Concentration, Serum"}, "[6]": {"conditions": "stimulated with human recombinant PDGF-AB, read-out: Porcine Smooth Muscle Cell Antiproliferation IC50 or % Inhibition at x Concentration, PDGF"}}, "note": "Structures can show the parent of a compound that is named as a salt. Where two headings read alike, the source gives them in different places."}
{"smiles": "COc1ccc2[nH]c(C=Cc3ccc(OC)c(OC)c3)nc2c1", "note": "(as salt: hydrochloride) (hydrate or solvate) [Example 2, 2-[2-(3,4-Dimethoxyphenyl)-vinyl]-5-methoxy-1H-benzoimidazole]", "values": [{"measurement": "melting point", "result": "246 to 249", "unit": "°C"}]}
{"smiles": "COC(=O)c1ccc(Cn2c(C=Cc3ccc(OC)c(OC)c3)nc3c(OC)c(C)c(C)c(OC)c32)cc1", "note": "(hydrate or solvate) [Example 8, 4-{2-[2-(3,4-Dimethoxyphenyl)-vinyl]-4,7-dimethoxy-5,6-dimethyl-benzoimidazol-1-ylmethyl}-benzoic acid methyl ester]", "values": [{"measurement": "melting point", "result": "111 to 114", "unit": "°C"}]}
{"smiles": "COc1ccc(/C=C/c2nc3ccccc3[nH]2)cc1OC", "note": "[Example 1, (E)-2-[2-(3,4-Dimethoxyphenyl)-vinyl]-1H-benzoimidazole]", "values": [{"measurement": "IC50", "setting": "[1]; [3]", "result": 5910, "unit": "nM"}, {"measurement": "IC50", "setting": "[1]; [4]", "result": 4100, "unit": "nM"}, {"measurement": "viability at 24 h", "setting": "[2]", "result": 100, "unit": "%"}]}
{"smiles": "COc1ccc2[nH]c(C=Cc3ccc(OC)c(OC)c3)nc2c1", "note": "[Example 2, 2-[2-(3,4-Dimethoxyphenyl)-vinyl]-5-methoxy-1H-benzoimidazole]", "values": [{"measurement": "IC50", "setting": "[1]; [3]", "result": 11400, "unit": "nM"}, {"measurement": "IC50", "setting": "[1]; [4]", "result": 3480, "unit": "nM"}, {"measurement": "viability at 24 h", "setting": "[2]", "result": 100, "unit": "%"}]}
{"smiles": "COc1ccc(C=Cc2nc3cc(C(=O)c4ccccc4)ccc3[nH]2)cc1OC", "note": "[Example 3, {2-[2-(3,4-Dimethoxyphenyl)-vinyl]-1H-benzoinmidazol-5-yl}-phenyl-methanone]", "values": [{"measurement": "IC50", "setting": "[1]; [5]", "result": 7600, "unit": "nM"}, {"measurement": "IC50", "setting": "[1]; [6]", "result": "324 to 801", "unit": "nM"}]}
{"smiles": "COc1ccc(C=Cc2nc3c(OC)c(C)c(C)c(OC)c3[nH]2)cc1OC", "note": "[Example 4, 2-[2-(3,4-Dimethoxyphenyl)-vinyl]-4,7-dimethoxy-5,6-dimethyl-1H-benzoimidazole]", "values": [{"measurement": "IC50", "setting": "[1]; [3]", "result": 1280, "unit": "nM"}, {"measurement": "IC50", "setting": "[1]; [4]", "result": 1500, "unit": "nM"}, {"measurement": "viability at 24 h", "setting": "[2]", "result": 100, "unit": "%"}, {"measurement": "melting point", "result": "116 to 119", "unit": "°C"}]}
{"smiles": "COC(=O)c1ccc2[nH]c(/C=C/c3ccc(OC)c(OC)c3)nc2c1", "note": "[Example 5, (E)-2-[2-(3,4-Dimethoxyphenyl)-vinyl]-1H-benzoimidazole-5-carboxylic acid methyl ester]", "values": [{"measurement": "IC50", "setting": "[1]; [3]", "result": 1200, "unit": "nM"}, {"measurement": "IC50", "setting": "[1]; [4]", "result": 6120, "unit": "nM"}, {"measurement": "viability at 24 h", "setting": "[2]", "result": 100, "unit": "%"}, {"measurement": "melting point", "result": "185 to 188", "unit": "°C"}]}
{"smiles": "COc1ccc(/C=C/c2nc3cc(C(=O)O)ccc3[nH]2)cc1OC", "note": "[Example 6, (E)-2-[2-(3,4-Dimethoxyphenyl)-vinyl]-1H-benzoimidazole-5-carboxylic acid]", "values": [{"measurement": "IC50", "setting": "[1]; [3]", "result": 2260, "unit": "nM"}, {"measurement": "IC50", "setting": "[1]; [4]", "result": 7490, "unit": "nM"}, {"measurement": "viability at 24 h", "setting": "[2]", "result": 100, "unit": "%"}]}
{"smiles": "COc1ccc(/C=C/c2nc3cc([N+](=O)[O-])ccc3[nH]2)cc1OC", "note": "[Example 7, (E)-2-[2-(3,4-Dimethoxyphenyl)-vinyl]-5-nitro-1H-benzoimidazole]", "values": [{"measurement": "IC50", "setting": "[1]; [3]", "result": "567 to 1900", "unit": "nM"}, {"measurement": "IC50", "setting": "[1]; [4]", "result": 1490, "unit": "nM"}, {"measurement": "viability at 24 h", "setting": "[2]", "result": 100, "unit": "%"}, {"measurement": "melting point", "result": "223 to 225", "unit": "°C"}]}
{"smiles": "COC(=O)c1ccc(Cn2c(C=Cc3ccc(OC)c(OC)c3)nc3c(OC)c(C)c(C)c(OC)c32)cc1", "note": "[Example 8, 4-{2-[2-(3,4-Dimethoxyphenyl)-vinyl]-4,7-dimethoxy-5,6-dimethyl-benzoimidazol-1-ylmethyl}-benzoic acid methyl ester]", "values": [{"measurement": "IC50", "setting": "[1]; [3]", "result": "915 to 10200", "unit": "nM"}, {"measurement": "IC50", "setting": "[1]; [4]", "result": 622, "unit": "nM"}, {"measurement": "viability at 24 h", "setting": "[2]", "result": 80, "unit": "%"}]}
{"smiles": "COc1ccc(C=Cc2nc3c([nH]2)C(=O)C(C)=C(C)C3=O)cc1OC", "note": "[Example 9, 2-[2-(3,4-Dimethoxyphenyl)-vinyl]-5,6-dimethyl-1-benzoimidazol-4,7-dione]", "values": [{"measurement": "IC50", "setting": "[1]; [5]", "result": 14500, "unit": "nM"}, {"measurement": "IC50", "setting": "[1]; [6]", "result": 858, "unit": "nM"}]}
{"smiles": "O=[N+]([O-])c1ccc2[nH]c(/C=C/c3ccncc3)nc2c1", "note": "[Example 10, (E)-5-Nitro2-(2-pyridin-4-yl-vinyl)-1H-benzoimidazole]", "values": [{"measurement": "IC50", "setting": "[1]; [3]", "result": 8360, "unit": "nM"}, {"measurement": "IC50", "setting": "[1]; [4]", "result": 620, "unit": "nM"}, {"measurement": "viability at 24 h", "setting": "[2]", "result": 45, "unit": "%"}]}
{"smiles": "O=[N+]([O-])c1ccc2[nH]c(/C=C/c3ccoc3)nc2c1", "note": "[Example 11, (E)-2-(2-Furan-3-yl-vinyl)-5-nitro-1H-benzoimidazole]", "values": [{"measurement": "melting point", "result": "230 to 233", "unit": "°C"}]}
